Experimental findings from doi:10.1101/2024.08.13.607785v1 (biorxiv, 2024) are described below.

Each structure is given as a SMILES string.

Holding throughout (design): species or system mixed lysate of K562, MV4-11, THP-1, NCI-H1155
Assay [1] concerns the target T1, Dual specificity mitogen-activated protein kinase kinase 3 ; MAP2K3 ; P46734 (Homo sapiens, UniProt P46734).
T1 sequence (P46734 1-347): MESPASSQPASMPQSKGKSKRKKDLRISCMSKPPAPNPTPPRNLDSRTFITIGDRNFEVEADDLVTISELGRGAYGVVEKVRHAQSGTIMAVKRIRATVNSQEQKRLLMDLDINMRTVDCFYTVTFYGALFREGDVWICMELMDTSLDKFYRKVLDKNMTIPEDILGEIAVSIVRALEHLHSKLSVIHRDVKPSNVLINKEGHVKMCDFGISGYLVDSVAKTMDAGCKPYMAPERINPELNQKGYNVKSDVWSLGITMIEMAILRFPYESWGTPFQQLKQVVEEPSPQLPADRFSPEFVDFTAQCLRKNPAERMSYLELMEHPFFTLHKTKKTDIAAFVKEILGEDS
The following applies: DDA-MS residual binding; binder.

Assay [2] has as its target Serine/threonine-protein kinase SIK2 ; SIK2 ; Q9H0K1 (Homo sapiens, UniProt Q9H0K1). The following applies: DDA-MS residual binding; binder.
Assay [3] addresses Tyrosine-protein kinase FRK ; FRK ; P42685 (Homo sapiens, UniProt P42685). The note with it: DDA-MS residual binding; binder.
Assay [4] concerns the target Mitogen-activated protein kinase kinase kinase kinase 5 ; MAP4K5 ; Q9Y4K4 (Homo sapiens, UniProt Q9Y4K4). The following applies: DDA-MS residual binding; binder.
In assay [5] the target is Activated CDC42 kinase 1 ; TNK2 ; Q07912 (Homo sapiens, UniProt Q07912). The following applies: DDA-MS residual binding; binder.
The target in assay [6] is Epithelial discoidin domain-containing receptor 1 ; DDR1 ; Q08345 (Homo sapiens, UniProt Q08345). The note with it: binder.
Assay [7] addresses T2, Cyclin-G-associated kinase ; GAK ; O14976 (Homo sapiens, UniProt O14976).
T2 sequence (O14976 1-1311): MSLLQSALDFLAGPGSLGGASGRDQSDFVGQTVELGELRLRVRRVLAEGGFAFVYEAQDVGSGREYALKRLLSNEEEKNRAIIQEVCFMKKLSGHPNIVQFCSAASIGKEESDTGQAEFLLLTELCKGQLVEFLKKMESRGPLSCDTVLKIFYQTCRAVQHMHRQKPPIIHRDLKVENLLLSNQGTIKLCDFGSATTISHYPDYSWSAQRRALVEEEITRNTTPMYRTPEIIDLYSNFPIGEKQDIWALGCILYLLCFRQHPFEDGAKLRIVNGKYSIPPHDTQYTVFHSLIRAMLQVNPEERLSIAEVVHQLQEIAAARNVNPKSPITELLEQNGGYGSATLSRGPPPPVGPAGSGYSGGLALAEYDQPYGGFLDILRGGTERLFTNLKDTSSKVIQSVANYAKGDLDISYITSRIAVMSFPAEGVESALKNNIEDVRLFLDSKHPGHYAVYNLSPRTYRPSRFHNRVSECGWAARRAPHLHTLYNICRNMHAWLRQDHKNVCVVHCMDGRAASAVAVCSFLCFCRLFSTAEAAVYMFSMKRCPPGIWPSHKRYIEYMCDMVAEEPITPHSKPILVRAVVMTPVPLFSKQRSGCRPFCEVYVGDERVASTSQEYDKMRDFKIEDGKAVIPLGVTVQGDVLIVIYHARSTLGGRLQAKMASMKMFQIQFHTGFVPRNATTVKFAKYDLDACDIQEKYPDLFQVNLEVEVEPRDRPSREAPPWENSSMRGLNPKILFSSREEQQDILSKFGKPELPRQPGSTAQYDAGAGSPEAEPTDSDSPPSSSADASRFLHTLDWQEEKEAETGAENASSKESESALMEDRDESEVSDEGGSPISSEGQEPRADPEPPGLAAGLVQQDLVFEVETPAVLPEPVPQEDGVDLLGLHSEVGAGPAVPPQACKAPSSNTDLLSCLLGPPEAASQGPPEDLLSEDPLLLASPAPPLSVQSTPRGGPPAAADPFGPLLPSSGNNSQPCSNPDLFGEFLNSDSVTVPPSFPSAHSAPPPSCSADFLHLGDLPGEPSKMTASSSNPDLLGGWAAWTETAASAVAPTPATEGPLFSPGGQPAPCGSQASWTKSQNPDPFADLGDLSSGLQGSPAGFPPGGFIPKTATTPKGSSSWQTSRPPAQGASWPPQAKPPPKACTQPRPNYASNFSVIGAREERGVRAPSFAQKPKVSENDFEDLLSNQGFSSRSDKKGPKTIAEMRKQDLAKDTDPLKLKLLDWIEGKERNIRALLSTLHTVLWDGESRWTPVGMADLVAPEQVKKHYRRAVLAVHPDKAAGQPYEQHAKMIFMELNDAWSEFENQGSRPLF
The following applies: DDA-MS residual binding; binder.

Sequence of Tyrosine-protein kinase FRK ; FRK ; P42685 (P42685 whole entry): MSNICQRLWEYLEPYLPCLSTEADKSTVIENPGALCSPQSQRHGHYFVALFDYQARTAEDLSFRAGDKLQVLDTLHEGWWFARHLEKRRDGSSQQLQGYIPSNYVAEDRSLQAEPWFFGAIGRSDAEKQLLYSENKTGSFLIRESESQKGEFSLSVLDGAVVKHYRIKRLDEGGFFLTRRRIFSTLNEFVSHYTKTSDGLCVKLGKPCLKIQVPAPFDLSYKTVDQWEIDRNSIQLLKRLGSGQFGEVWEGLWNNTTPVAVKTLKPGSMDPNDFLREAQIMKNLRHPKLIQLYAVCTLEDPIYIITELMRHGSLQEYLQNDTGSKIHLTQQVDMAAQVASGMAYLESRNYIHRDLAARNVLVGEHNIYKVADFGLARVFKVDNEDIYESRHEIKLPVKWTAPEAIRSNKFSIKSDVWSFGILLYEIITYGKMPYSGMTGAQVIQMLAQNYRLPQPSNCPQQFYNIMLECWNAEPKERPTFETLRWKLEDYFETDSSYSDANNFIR
Sequence of Activated CDC42 kinase 1 ; TNK2 ; Q07912 (Q07912 whole entry, the tested form may be a part): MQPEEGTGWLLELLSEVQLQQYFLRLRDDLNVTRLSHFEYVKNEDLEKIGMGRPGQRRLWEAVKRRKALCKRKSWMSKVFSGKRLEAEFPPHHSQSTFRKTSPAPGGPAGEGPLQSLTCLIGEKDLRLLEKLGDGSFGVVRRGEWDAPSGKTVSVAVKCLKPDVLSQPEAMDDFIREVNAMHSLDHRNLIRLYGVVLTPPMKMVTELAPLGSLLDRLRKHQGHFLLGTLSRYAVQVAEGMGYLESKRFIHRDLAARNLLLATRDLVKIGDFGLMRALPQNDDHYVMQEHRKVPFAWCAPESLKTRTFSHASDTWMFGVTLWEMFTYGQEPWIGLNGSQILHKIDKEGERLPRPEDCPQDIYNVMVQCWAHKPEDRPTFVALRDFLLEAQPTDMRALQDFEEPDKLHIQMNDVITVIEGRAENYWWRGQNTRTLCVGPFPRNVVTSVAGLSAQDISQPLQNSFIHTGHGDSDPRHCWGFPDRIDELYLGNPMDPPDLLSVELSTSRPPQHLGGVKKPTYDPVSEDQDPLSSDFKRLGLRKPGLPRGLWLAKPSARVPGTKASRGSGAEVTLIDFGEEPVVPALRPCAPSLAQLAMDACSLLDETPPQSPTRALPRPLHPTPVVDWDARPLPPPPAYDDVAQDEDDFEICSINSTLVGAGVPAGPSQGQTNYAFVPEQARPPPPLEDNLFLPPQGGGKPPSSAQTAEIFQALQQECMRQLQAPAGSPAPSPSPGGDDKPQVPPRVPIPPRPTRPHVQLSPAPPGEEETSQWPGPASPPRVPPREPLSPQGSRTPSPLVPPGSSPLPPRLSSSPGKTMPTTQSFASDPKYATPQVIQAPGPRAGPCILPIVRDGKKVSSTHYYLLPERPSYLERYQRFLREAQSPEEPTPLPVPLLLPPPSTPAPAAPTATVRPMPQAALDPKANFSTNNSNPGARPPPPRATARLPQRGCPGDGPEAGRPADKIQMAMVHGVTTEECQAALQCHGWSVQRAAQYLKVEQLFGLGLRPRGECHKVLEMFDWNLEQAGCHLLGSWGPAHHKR
Sequence of Epithelial discoidin domain-containing receptor 1 ; DDR1 ; Q08345 (Q08345 whole entry, the tested form may be a part): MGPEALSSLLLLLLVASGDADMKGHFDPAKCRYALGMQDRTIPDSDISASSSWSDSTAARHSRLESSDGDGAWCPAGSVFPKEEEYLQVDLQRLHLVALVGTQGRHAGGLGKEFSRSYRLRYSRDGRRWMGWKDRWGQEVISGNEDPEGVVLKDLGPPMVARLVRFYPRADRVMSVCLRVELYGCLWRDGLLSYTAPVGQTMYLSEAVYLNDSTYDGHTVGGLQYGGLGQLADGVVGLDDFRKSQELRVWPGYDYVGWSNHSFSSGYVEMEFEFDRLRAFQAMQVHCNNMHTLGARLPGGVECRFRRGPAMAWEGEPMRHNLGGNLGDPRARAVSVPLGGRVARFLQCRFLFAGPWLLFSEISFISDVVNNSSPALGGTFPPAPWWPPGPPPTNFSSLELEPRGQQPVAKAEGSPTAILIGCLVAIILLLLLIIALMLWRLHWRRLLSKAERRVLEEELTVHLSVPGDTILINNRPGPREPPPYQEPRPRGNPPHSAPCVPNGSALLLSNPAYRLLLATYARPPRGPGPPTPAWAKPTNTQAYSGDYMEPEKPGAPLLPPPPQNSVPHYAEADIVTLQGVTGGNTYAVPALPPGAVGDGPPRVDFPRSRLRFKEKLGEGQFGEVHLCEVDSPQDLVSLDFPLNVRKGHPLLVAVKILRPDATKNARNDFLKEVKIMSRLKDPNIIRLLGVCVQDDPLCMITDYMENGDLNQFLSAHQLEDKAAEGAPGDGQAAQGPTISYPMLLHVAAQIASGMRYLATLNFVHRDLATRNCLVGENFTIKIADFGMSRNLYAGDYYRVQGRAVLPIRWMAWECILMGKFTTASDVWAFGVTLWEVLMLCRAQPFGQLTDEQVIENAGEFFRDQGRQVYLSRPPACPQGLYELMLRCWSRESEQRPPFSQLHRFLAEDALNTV
Sequence of Serine/threonine-protein kinase SIK2 ; SIK2 ; Q9H0K1 (Q9H0K1 whole entry, one chain of several): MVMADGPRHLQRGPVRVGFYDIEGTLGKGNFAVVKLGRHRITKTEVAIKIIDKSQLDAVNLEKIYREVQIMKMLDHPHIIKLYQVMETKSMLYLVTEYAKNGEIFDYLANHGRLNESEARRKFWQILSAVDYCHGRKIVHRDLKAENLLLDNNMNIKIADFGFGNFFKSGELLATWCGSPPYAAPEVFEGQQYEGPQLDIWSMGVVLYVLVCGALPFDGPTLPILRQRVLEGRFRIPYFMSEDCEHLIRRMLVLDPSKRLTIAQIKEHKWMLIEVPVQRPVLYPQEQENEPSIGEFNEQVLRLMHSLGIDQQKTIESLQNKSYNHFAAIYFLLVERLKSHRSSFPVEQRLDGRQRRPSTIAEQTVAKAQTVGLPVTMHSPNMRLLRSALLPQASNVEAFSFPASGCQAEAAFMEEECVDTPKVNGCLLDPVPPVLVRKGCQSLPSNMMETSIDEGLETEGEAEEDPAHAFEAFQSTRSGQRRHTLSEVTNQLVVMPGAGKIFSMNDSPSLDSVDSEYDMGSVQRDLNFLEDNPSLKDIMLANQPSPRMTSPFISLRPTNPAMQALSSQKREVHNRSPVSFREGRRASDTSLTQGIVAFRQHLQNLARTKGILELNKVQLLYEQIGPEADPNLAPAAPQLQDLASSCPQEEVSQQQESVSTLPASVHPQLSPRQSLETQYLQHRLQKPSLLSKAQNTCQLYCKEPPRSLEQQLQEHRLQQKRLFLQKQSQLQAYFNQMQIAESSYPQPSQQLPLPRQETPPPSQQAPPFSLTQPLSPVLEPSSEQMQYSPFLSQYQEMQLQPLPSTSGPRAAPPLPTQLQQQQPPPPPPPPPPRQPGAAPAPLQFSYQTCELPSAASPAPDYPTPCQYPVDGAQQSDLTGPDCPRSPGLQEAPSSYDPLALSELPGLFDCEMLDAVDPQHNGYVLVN
Sequence of Mitogen-activated protein kinase kinase kinase kinase 5 ; MAP4K5 ; Q9Y4K4 (Q9Y4K4 whole entry): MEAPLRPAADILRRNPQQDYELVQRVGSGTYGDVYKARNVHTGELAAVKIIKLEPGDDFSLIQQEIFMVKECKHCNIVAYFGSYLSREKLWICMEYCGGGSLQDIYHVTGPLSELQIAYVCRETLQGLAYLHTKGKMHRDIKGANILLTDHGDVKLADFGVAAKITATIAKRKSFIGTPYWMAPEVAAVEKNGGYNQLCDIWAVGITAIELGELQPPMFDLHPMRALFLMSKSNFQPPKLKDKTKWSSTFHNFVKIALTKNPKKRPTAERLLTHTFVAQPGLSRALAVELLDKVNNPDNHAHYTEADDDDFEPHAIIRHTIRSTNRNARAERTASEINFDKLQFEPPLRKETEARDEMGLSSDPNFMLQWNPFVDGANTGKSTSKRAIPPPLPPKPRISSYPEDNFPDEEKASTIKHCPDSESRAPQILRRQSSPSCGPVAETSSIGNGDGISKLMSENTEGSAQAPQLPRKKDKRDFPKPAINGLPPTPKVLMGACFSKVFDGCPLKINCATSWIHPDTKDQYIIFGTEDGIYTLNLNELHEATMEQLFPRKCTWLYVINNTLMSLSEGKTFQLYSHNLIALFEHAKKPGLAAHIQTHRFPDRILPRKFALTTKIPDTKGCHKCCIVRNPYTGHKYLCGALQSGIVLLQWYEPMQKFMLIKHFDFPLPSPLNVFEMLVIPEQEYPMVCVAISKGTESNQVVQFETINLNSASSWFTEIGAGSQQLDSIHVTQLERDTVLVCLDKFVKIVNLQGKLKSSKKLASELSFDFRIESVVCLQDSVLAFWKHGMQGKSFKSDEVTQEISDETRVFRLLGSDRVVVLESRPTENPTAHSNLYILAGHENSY

In the case of `Cc1nc(Nc2ncc(C(=O)Nc3c(C)cccc3Cl)s2)cc(N2CCN(CCO)CC2)n1` [dasatinib], the “DDA-MS / % Intensity (30 µM/DMSO)” value in assay [1] was found to be 35.23%; in assay [2], 1.826%; in assay [3], 5.626%; in assay [4] it was 24.77%; in assay [5] it was 3.313%; in assay [6], 4.526%. For the same compound, the “DDA-MS / % Intensity (30 µM/DMSO)” value in assay [7] came to 1.947%.
